The test system of one data set is Oncomelania hupensis. Description: Snail-killing activity against Oncomelania hupensis (immersion method). The class given is in vivo. Particulars: 24 h, 24 hours of immersion, 25° C., linear interpolation, read-out: Oncomelania hupensis the LC50 values at the 24th hour. As for the experimental part:
(1): Snail-Killing Activity Against Oncomelania hupensis
Oncomelania hupensis was used as a tested sample and tested by the immersion method. Operation process: Weigh various samples accurately (compounds of any of Example 1 to Example 16), dissolve each sample with 0.2 mL of N,N-dimethylformamide, and dilute each sample to 0.2 mg/L of the drug solution with dechlorinated tap water. Put 30 snails in each beaker and pour 100 ml of the above-mentioned drug solution into each beaker. And cover the plastic gauze on the beaker to prevent the snails from climbing to the liquid surface. Place the above beakers accommodating the drug solution and snails in the incubator under the conditions which is at 25° C. constant temperature, and the humidity is maintained at 60%. and the light is fully. After 24 hours of immersion in the incubator, the drug solution is poured, and each sample is washed for 3 times by using water. Then, 15 mL of dechlorinated tap water is added to resuscitate each sample for 1 hour. Each sample is resuscitated for 1 hour again after 24 hours, and then activity of the snails is determined by knocking after 24 hours. Each sample was set to repeat 3 times. The tested concentrations were respectively 0.1 mg/L, 0.5 mg/L, 1 mg/L, 2 mg/L, 5 mg/L, and 10 mg/L. A linear interpolation method was used to draw a curve of the percentage of death at the 24th hour relative to the tested concentrations of the prepared compounds, thereby the LC50 values at the 24th hour are obtained.
A comparison was made with 0.2 mg/L of niclosamide (positive control) and water containing 0.2 mL/L of N,N-dimethylformamide (blank control).

Another data set in a line: Acute toxicity to fish. Type of data set: in vivo, Danio rerio. Particulars: Danio rerio, in vivo, pH 7, 96 hour test cycle, 23±1° C., linear interpolation; read-out: Danio rerio the LC50 values at the 96th hour. The procedure: (§1) (2): Study on Acute Toxicity to Fish
(§2) Tested substance: Compound of any of Example 1 to Example 16 of which tested concentrations were respectively 0 mg/L, 20 mg/L, 40 mg/L, 60 mg/L, 80 mg/L, and 100 mg/L.
(§3) Tested fish species: Danio rerio of which body length was 20±1 mm and weight was 0.3±0.1 g.
(§4) Test process: The tested fish was domesticated in continuous aerated diluted water for 7 days before the test. The water quality and lighting conditions during the domestication were consistent with the conditions during the test. Feeding was stopped 24 hours before the test. […] The water temperature during the test was constant at 23±1° C. The dissolved oxygen content during the test should be higher than 60% of the air saturation value, and the pH value was 7.0±0.2. The test cycle is 96 hours. The poisoning symptoms and mortality of the tested fish were observed and recorded at any time within 3 hours to 6 hours after starting the test, and then the poisoning symptoms and mortality of the tested fish at different concentrations were observed and recorded at 24th hour, 48th hour, 72th hour, and 96th hour. The criterion for judging dead fish is to knock the tail of the fish with glasses. If the fish had no action, it is judged that the fish was dead.
(§5) A linear interpolation method was used to draw the curve of the percentage of death relative to the tested concentrations of the compound prepared in Example 4 at 96 hour, thereby the LC50 values at 96th hour are obtained, which was treated with water as a blank control. The LC50 value of the other compound at 96th hour was obtained in this way.

Data set [1] relates to Danio rerio. Kind of data set: Acute toxicity to fish. The class given is in vivo. Particulars: applied for 1 hour.
Data set [2] relates to Danio rerio. Description: Acute toxicity to fish. The class given is in vivo. Particulars: 96 hour test cycle, 23±1° C., linear interpolation. The procedure:
as §1, §2, §3, §4, §5

≈ marks a conversion by molar mass, not a printed value. Bounds are passed on as bounds.

This is an account of results in patent US20210022340A1, “USE OF PYRIDINE UREA COMPOUND HAVING SNAIL-KILLING ACTIVITY” (priority 2017, published 2021).

`O=C(Nc1cccnc1)Nc1cccc(F)c1` [Compound 11]: in the data set with Oncomelania hupensis, the LC50 worked out at 4.9 µg/mL (≈ 21.2 µM). Also, the median lethal concentration (LC50) at 96 h in “Acute toxicity to fish” was over 100 µg/mL.

As for `O=C(Nc1cccnc1)Nc1ccccc1Cl` [Compound 6], in the data set with Oncomelania hupensis, the LC50 came out at 9.2 µg/mL (≈ 37.1 µM). The LC50 at 96 h in the data set “Acute toxicity to fish” is over 100 µg/mL.

Take `O=C(Nc1cccnc1)Nc1ccc(Cl)cc1Cl` [Compound 8]: in the data set with Oncomelania hupensis, the LC50 is 5.8 µg/mL (≈ 20.6 µM). For the same compound, the LC50 at 96 h in the data set “Acute toxicity to fish” is over 100 µg/mL.

With `O=C(Nc1cccnc1)Nc1cccc(Cl)c1` [Compound 4], in the data set with Oncomelania hupensis, the LC50 stood at 5.8 µg/mL (≈ 23.4 µM). Moreover, the LC50 at 96 h in the data set “Acute toxicity to fish” is over 100 µg/mL.

Regarding `O=C(Nc1ccc(Br)cc1)Nc1cccnc1` [Compound 13], the LC50 in the data set on Oncomelania hupensis was about 0.5 µg/mL (≈ 1.71 µM). For the same compound, the 50% lethal concentration (LC50) at 96 h in the data set “Acute toxicity to fish” was 15 µg/mL (≈ 51.3 µM).

Turning to `O=C(Nc1cccnc1)Nc1cc(F)cc(F)c1` [Compound 9], the LC50 with Oncomelania hupensis was 4.3 µg/mL (≈ 17.3 µM). The LC50 at 96 h in “Acute toxicity to fish” is over 100 µg/mL.

Regarding `O=C(Nc1cccnc1)Nc1ccccc1F` [Compound 3], in the data set on Oncomelania hupensis, the LC50 turned out to be 4.8 µg/mL (≈ 20.8 µM). For the same compound, the LC50 at 96 h in “Acute toxicity to fish” is over 100 µg/mL.

For `O=C(Nc1cccnc1)Nc1ccc(F)cc1C(F)(F)F` [Compound 5], the LC50 in the data set with Oncomelania hupensis came to 8.9 µg/mL (≈ 29.7 µM). Besides, the median lethal concentration (LC50) at 96 h in “Acute toxicity to fish” was over 100 µg/mL.

For `Cc1cccc(NC(=O)Nc2cccnc2)c1` [Compound 12], in the data set on Oncomelania hupensis, the 50% lethal concentration (LC50) is 8.2 µg/mL (≈ 36.1 µM). The LC50 at 96 h in “Acute toxicity to fish” is over 100 µg/mL.

With `O=C(Nc1ccc(OC(F)(F)F)cc1)Nc1cccnc1` [Compound 2], in the data set on Oncomelania hupensis, the median lethal concentration (LC50) came to 3.5 µg/mL (≈ 11.8 µM). Moreover, the LC50 at 96 h in the data set “Acute toxicity to fish” is over 100 µg/mL.

`Cc1ccccc1NC(=O)Nc1cccnc1` [Compound 15]: in the data set on Oncomelania hupensis, the LC50 came to 7.2 µg/mL (≈ 31.7 µM). For the same compound, the LC50 at 96 h in the data set “Acute toxicity to fish” was over 100 µg/mL.

As to `O=C(Nc1ccc([N+](=O)[O-])cc1Cl)c1cc(Cl)ccc1O` [niclosamide, reference compound], the fish death entry with Danio rerio [1] is on record as “all fish is resulted in almost death”. The LC50 with Oncomelania hupensis came out at 0.6 µg/mL (≈ 1.83 µM). Further, the “Danio rerio the LC50 values at the 96th hour” value in the data set on Danio rerio [2] is 0.2 µg/mL. Besides, the LC50 at 96 h in the data set “Acute toxicity to fish” came out at 0.21 µg/mL (≈ 0.642 µM).

For `Cc1ccc(NC(=O)Nc2cccnc2)cc1` [Compound 16], the LC50 in the data set with Oncomelania hupensis was determined as 8.1 µg/mL (≈ 35.6 µM). In “Acute toxicity to fish”, the LC50 at 96 h was over 100 µg/mL.

In the case of `O=C(Nc1cccnc1)Nc1ccc(Cl)cc1C(F)(F)F` [Compound 7], the LC50 in the data set on Oncomelania hupensis worked out at 6.7 µg/mL (≈ 21.2 µM). Further, in the data set “Acute toxicity to fish”, the LC50 at 96 h was over 100 µg/mL.

As to `O=C(Nc1cccnc1)Nc1ccc(F)cc1F` [Compound 1], the LC50 with Oncomelania hupensis was determined as 5 µg/mL (≈ 20.1 µM). The LC50 at 96 h in the data set “Acute toxicity to fish” is over 100 µg/mL.

Regarding `O=C(Nc1ccc(Cl)cc1)Nc1cccnc1` [Compound 14], the 50% lethal concentration (LC50) with Oncomelania hupensis is about 0.5 µg/mL (≈ 2.02 µM). In addition, in “Acute toxicity to fish”, the LC50 at 96 h was 15 µg/mL (≈ 60.6 µM).

`O=C(Nc1ccc([N+](=O)[O-])cc1)Nc1cccnc1` [Compound 10]: in the data set with Oncomelania hupensis, the LC50 turned out to be 3.8 µg/mL (≈ 14.7 µM). Further, the LC50 at 96 h in the data set “Acute toxicity to fish” was over 100 µg/mL.
